Measurements: article PMC4528135, “Kinetic Investigations of the Role of Factor Inhibiting Hypoxia-inducible Factor (FIH) as an Oxygen Sensor” (The Journal of Biological Chemistry, 2015)

Tests used:
Format in all cases: biochemical
[1] = target: T1, PHD2 (catalytic domain, residues 181–426) (Homo sapiens, UniProt Q9GZT9); test: Steady-state kinetics of PHD2-catalyzed HIF-α CODD/NODD hydroxylation (MALDI-TOF-MS); details: PHD2, 4 μM PHD2, 50 μM Fe(II), 4 mM L-ascorbate, 50 mM HEPES pH 7.5, 37 °C
T1 construct: The catalytic domain of PHD2 (residues 181–426) was purified as described; made in house
Experimental: (§1) Enzymatic assays were conducted as described ([46], [47]). Unless otherwise stated, the assay mixture typically contained 5 μM FIH, 500 μM substrate, 500 μM 2OG, 1 mM L-ascorbate, and 50 μM Fe(NH4)2(SO4)2 or 4 μM PHD2, 100 μM substrate, 300 μM 2OG, 4 mM L-ascorbate, and 50 μM Fe(NH4)2(SO4)2. For HIF-1α CODD19-mer, the background levels of methionine oxidation resulting from assay conditions were subtracted based on non-enzymatic controls ([48]).
The O2 dependence of FIH-catalyzed reactions was determined by conducting enzymatic assays in an “In vivo 500 Hypoxia Workstation” (Ruskinn) using buffers pre-equilibrated under different pO2 values for 24 h. The O2 dependence of PHD2-catalyzed reactions was determined by conducting enzymatic assays in sealed glass vials with variable N2/O2 contents ([42]). Reactions were stopped by spotting samples onto a matrix-assisted laser desorption/ionization-time of flight mass spectrometry (MALDI-TOF-MS) target plate and immediately mixing with α-cyano-4-hydroxycinnamic acid matrix. Hydroxylation levels were assessed by MALDI-TOF-MS as described ([46]).

PHD2 [2] = target: T2, PHD2 (Homo sapiens, UniProt Q9GZT9); test: Stopped-flow UV-visible spectroscopy, PHD2·Fe(II)·2OG·substrate + O2; details: anaerobic 0.8 mM PHD2, 1 mM peptide, 5 mM 2OG, 50 mM HEPES pH 7.5, mixed 1:1 with O2-saturated buffer at 5 °C, double exponential fit
T2 construct: The catalytic domain of PHD2 (residues 181–426) was purified as described; made in house
Experimental: Stopped-flow UV-visible spectroscopy experiments were performed as described previously ([32], [42]). […] The reaction was observed over 1000 s using a photodiode array detector, and kinetic traces were analyzed using Origin version 8.51 software. Data were fitted with a double exponential function (y = A1 × exp(−kriset) + A2 × exp(−kfallt) + y0). The A1, A2, and y0 parameters were restricted with upper limits to match the observed amplitude/offset changes.
Previously reported pre-steady-state kinetic studies on PHD2 focused on its reaction with CODD HIF-1α 19-mer peptide ([38], [42]); there is no reported information on the rates of PHD2 reaction with O2 in the presence of NODD HIF-1α or HIF-2α substrates. To ascertain whether a slow reaction with O2 under pre-steady-state conditions is common to PHD2-catalyzed hydroxylation of both CODD and NODD, we investigated the reaction of PHD2 with NODD substrates in comparison with CODD for both HIF-1α and HIF-2α. Pre-steady-state reactions of PHD2 were initiated by rapid mixing of anaerobic PHD2·Fe(II)·2OG·HIF-α complexes with O2-saturated buffer at 5 °C. Reactions were initially observed using a photodiode array detector, and difference spectra (in comparison with the reaction with O2-free buffer) were subsequently analyzed.
FIGURE 5. Pre-steady-state kinetics of PHD2-catalyzed HIF-1/2α hydroxylation. […] B, stopped-flow kinetic traces at 520 nm showing absorbance changes in control experiments: Fe(II) only, mix of Fe(II) and 2OG, reaction of PHD2·Fe(II)·2OG complex with O2 in the absence of CODD; reaction of PHD2·Fe(II)·N-oxalylglycine (NOG)·CODD complex with O2. N-Oxalylglycine is an inhibitor of 2OG oxygenases. […] The kinetic traces represent the average of triplicate assays. E, HIF-1/2α peptide hydroxylation, as determined by MALDI-TOF-MS. Reactions were quenched with 1% CF3CO2H at defined time points.

PHD2 [3] = target: T2, PHD2; test: Rapid quench-flow, PHD2 pre-steady-state product and succinate formation; details: same mixture as stopped-flow, O2-saturated buffer 1:1, 5 °C, quenched with 1% CF3CO2H
Experimental: Rapid quench-flow experiments were performed using the same conditions and preparation of the assay mixture as used in stopped-flow experiments. Rapid quench-flow equipment (TgK Scientific Ltd.) in an anaerobic glove box was used for the experiments. Samples were quenched with 1% CF3CO2H and analyzed using MALDI-TOF-MS (peptide hydroxylation) as described above or liquid chromatography-mass spectrometry (LC-MS, for succinate production). For LC-MS, chromatographic separation was performed at 50 °C using a Waters ACQUITY BEH Amide 1.7-μm, 2.1 × 100-mm column on a Waters ACQUITY^TM ultraperformance liquid chromatography system (Waters Corp., Milford, MA). The following eluents were used: mobile phase A: 10% H2O, 90% acetonitrile (v/v), 10 mM ammonium formate; mobile phase B: 50% H2O, 50% acetonitrile (v/v), 10 mM ammonium formate. The elution gradient was 0–7.0 min linear from 10 to 30% B, and 7.0–9.0 min at 10% B for re-equilibration of the column. A constant flow rate of 0.4 ml/min was used. Analytes were detected in negative ionization mode using single reaction monitoring on a Quattro triple quadrupole mass spectrometer (Waters) with a cone voltage of 15 V and a capillary voltage of 3.0 kV. The desolvation temperature was set to 250 °C, and the source temperature was set to 120 °C.
To investigate correlation of the spectroscopic observations with rates of product accumulation, equivalent reactions were analyzed by rapid quench-flow methodology. Anerobically prepared PHD2·Fe(II)·2OG·peptide substrate complexes were mixed with O2-saturated buffer in a 1:1 ratio; reactions were quenched at defined time points with 1% aqueous CF3CO2H. The level of peptide hydroxylation was assessed by MALDI-TOF-MS ([42]), and succinate accumulation was analyzed by LC-MS. To obtain rate constants for product accumulation, the results were fitted with a single exponential function (Fig. 5E and Table 3).

PHD2 [4] = target: T2, PHD2; test: Time course of PHD2-catalyzed peptide hydroxylation; details: 4 μM PHD2, 100 μM peptide, 50 μM Fe(II), 300 μM 2OG, 1 mM L-ascorbate, 50 mM HEPES pH 7.5, 37 °C, atmospheric O2; MALDI-TOF-MS; triplicate assays
Experimental: as §1
FIGURE 3. PHD2- and FIH-catalyzed hydroxylation of HIF-1/2α peptide substrates. A, time course of HIF-1/2α CODD19-mer peptide hydroxylation; B, time course of HIF-1/2α NODD19-mer peptide hydroxylation. Conditions were as follows: 4 μM PHD2, 100 μM peptide, 50 μM Fe(II), 300 μM 2OG, 1 mM L-ascorbate in HEPES 50 mM (pH 7.5) were incubated at 37 °C at atmospheric O2. C, time course of HIF-1α CAD 19- and 35-mer peptide hydroxylation. D, time course of HIF-2α CAD 19- and 35-mer peptide hydroxylation. Conditions were as follows: 5 μM FIH, 500 μM peptide, 50 μM Fe(II), 500 μM 2OG, 1 mM L-ascorbate in HEPES 50 mM (pH 7.5) were incubated at 37 °C at atmospheric O2. The different hydroxylation levels were analyzed by MALDI-TOF-MS. Error bars, S.D. of triplicate assays.

T2 sequence (Q9GZT9 181-426): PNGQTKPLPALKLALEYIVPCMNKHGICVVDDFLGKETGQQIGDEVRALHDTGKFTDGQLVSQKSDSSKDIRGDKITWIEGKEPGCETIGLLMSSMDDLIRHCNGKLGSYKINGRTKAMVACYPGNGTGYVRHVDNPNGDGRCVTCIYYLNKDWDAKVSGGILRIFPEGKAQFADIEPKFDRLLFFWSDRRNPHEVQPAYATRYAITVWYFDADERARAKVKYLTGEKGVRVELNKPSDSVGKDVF
T1 sequence (Q9GZT9 181-426): as above

What does the source list for “DLDLEMLAPYIPMDDDFQL [HIF-1α CODD, 19-mer fragment (556–574) of the HIF-1α C-terminal oxygen-dependent degradation domain, PHD2 substrate]”?
kcat^app [1]: 0.060 ± 0.006 s⁻¹; Stopped-flow, 520 nm (PHD2) krise phase (PHD2 [2]): 0.015 ± 0.005 s⁻¹; Stopped-flow, 520 nm (PHD2) kfall phase (PHD2 [2]; traces average of triplicate): 0.040 ± 0.007 s⁻¹; Rapid quench-flow kproduct (PHD2 [3]; peptide hydroxylation by MALDI-TOF-MS, single exponential fit): 0.0155 ± 0.0012 s⁻¹; Rapid quench-flow ksuccinate (PHD2 [3]; succinate by LC-MS): 0.0130 ± 0.0020 s⁻¹; substrate hydroxylation after 15 min (PHD2 [4]): 70%
